Laboratory results reported in patent publication US10941157B2, “Pesticidal compositions and uses thereof” (Gilead Apollo, LLC, priority 2015, dated 2021).
Converted amounts (≈) assume the structure as drawn. Read-outs that look alike come from different tables or passages of the source.

What was measured:
[1] = tested on: Blumeria graminis f. sp. hordei; test: Foliar protection test for barley powdery mildew control; type: in vivo; conditions: foliar spray on Hordeum vulgare cv. Perry, inoculated 24 hours after treatment, evaluated 7 days later
Method in brief: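 Six-day-old barley (cv. Perry) sprayed to wetness on both leaf sides; 24 h later inoculated by shaking spores from infected stock plants. Kept at 20 to 22° C, 70% relative humidity; mildew colonization assessed 7 days later.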

[2] = tested on: Phytophthora capsici (Pc); test: In vitro pathogen growth inhibition assay, Pc; type: cell-based; conditions: 48 h
Method in brief: (§1)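 Spores in 17% V8 liquid medium, or 1.5 mm Rs mycelial plugs in ¼ PDB, incubated with compound; final concentration checked by OD600 for precipitation. OD readings at 24 and 48 h, blank-subtracted, plus visual ratings; value is concentration giving ≥90% growth inhibition.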

[3] = tested on: Fusarium moniliforme (Fm); test: In vitro pathogen growth inhibition assay, Fm; type: cell-based; conditions: Fusarium verticillioides
Method in brief: as §1

[4] = tested on: Collectotrichum graminicola (Cg); test: In vitro pathogen growth inhibition assay, Cg; type: cell-based; conditions: 48 h
Method in brief: as §1

Rhizoctonia solani (Rs) = test: In vitro pathogen growth inhibition assay, Rs (mycelial plugs); type: cell-based; conditions: Rhizoctonia solani, 48 h, mycelial plugs
Method in brief: as §1

Pythium ultimum = test: Seed protectant for soybean seedling disease, P. ultimum; type: in vivo; conditions: soybean from treated seeds, 0.025 mg/seed, P. ultimum inoculated; for Plant Weight: fresh weight at 14 days; for Improvement in plant weight: percentage of non-inoculated non-treated controls
Procedure: The pathogen of Rhizoctonia solani inoculum was grown on sterile sorghum; and the pathogen of Pythium ultimum inoculum was grown on white millet.
Soybean seeds (Glycine max cv. AG4832) were planted in 2.5-inch square pots containing Berger BM2 germination mix amended with fertilizer (e.g., 14-14-14). Pots with soil were inoculated with the pathogen of R. solani or P. ultimum at time of planting. A hole was pressed into the soil to a depth of about 2 to 3 cm; the inoculum was added to the hole, followed by the seed which was then covered with soil. Two seeds per pot were planted. Plants were grown in a growth chamber at conditions of 20 to 24° C., 14 hour light cycle, 500 uM of light, and 65% humidity. The pots inoculated with P. ultimum were sub-irrigated every day; and the pots inoculated with R. solani were sub-irrigated every other day.
Seedling emergence was captured at 7 and 14 days after seeding. At 14 days, the top of the plant was removed and fresh weight was recorded. The plant weights from the seeds treated with test compounds (e.g., in formulations) were compared to the ones either from the inoculated non-treated seeds or non-inoculated non-treated seeds. Table 10 lists the results of the R. solani control in soybean upon seed treatment with test compounds, and Table 11 lists the results of the P. ultimum control in soybean upon seed treatment with test compounds, respectively.

Fusarium graminearum = type: in vivo; conditions: spray on flowering Triticum aestivum cv. Samson, inoculated 24 hours after treatment, evaluated 14 days later
[5] = tested on: Mycosphaerella graminicola (synthetic Septoria tritici); test: Foliar protection test for wheat septoria leaf blotch control; type: in vivo; conditions: foliar spray on Triticum aestivum cv. WinterHawk, inoculated 1 hour after treatment, evaluated 16 days later
Diplodia maydis (Dm) = test: In vitro pathogen growth inhibition assay, Dm; type: cell-based; conditions: Stenocarpella maydis, 48 h
Method in brief: as §1

[6] = tested on: Fusarium virguliforme (Fv); test: In vitro pathogen growth inhibition assay, Fv; type: cell-based
Method in brief: as §1

[7] = ≥90% growth inhibition, 48 hours, vs 2% DMSO control, read-out: Compound Concentration (ppm) sufficient for ≥90% inhibition of Pc
[8] = ≥90% growth inhibition, 48 hours, vs 2% DMSO control, read-out: Compound Concentration (ppm) sufficient for ≥90% inhibition of Fm
[9] = ≥90% growth inhibition, 48 hours, vs 2% DMSO control, read-out: Compound Concentration (ppm) sufficient for ≥90% inhibition of Cg
[10] = ≥90% growth inhibition, 48 hours, vs 2% DMSO control, read-out: Compound Concentration (ppm) sufficient for ≥90% inhibition of Rs
[11] = ≥90% growth inhibition, 48 hours, vs 2% DMSO control, read-out: Compound Concentration (ppm) sufficient for ≥90% inhibition of Dm
[12] = ≥90% growth inhibition, 48 hours, vs 2% DMSO control, read-out: Compound Concentration (ppm) sufficient for ≥90% inhibition of Fv

COc1ccc(F)cc1[C@H](Cn1c(=O)n(C(C)(C)C(=O)NC(C)C)c(=O)c2c(C)c(-n3nccn3)sc21)OCCC#N [Compound I-095, (R)-2-(1-(2-(2-cyanoethoxy)-2-(5-fluoro-2-methoxyphenyl)ethyl)-5-methyl-2,4-dioxo-6-(2H-1,2,3-triazol-2-yl)-1,4-dihydrothieno[2,3-d]pyrimidin-3 (2H)-yl)-N-isopropyl-2-methylpropanamide]
Barley Powdery Mildew Control at a compound concentration of 10 ppm or lower [1]: AA (≥85% control of barley powdery mildew)
IC90 ([2]; ≥90% inhibition, 48 hours vs 2% DMSO control, read-out: Compound Concentration (ppm) sufficient for ≥90% inhibition of growth, Pc): ≥ 2 µg/mL
IC90 ([3]; ≥90% inhibition, 48 hours vs 2% DMSO control, read-out: Compound Concentration (ppm) sufficient for ≥90% inhibition of growth, Fm): 0.08 µg/mL (≈ 0.134 µM)
IC90 ([4]; ≥90% inhibition, 48 hours vs 2% DMSO control, read-out: Compound Concentration (ppm) sufficient for ≥90% inhibition of growth, Cg): 0.08 µg/mL (≈ 0.134 µM)
IC90 (Rhizoctonia solani (Rs); ≥90% inhibition, 48 hours vs 2% DMSO control, read-out: Compound Concentration (ppm) sufficient for ≥90% inhibition of growth, Rs): 0.08 µg/mL (≈ 0.134 µM)
Plant Weight (Pythium ultimum): 4.65 g
Improvement in plant weight (Pythium ultimum): 74%
Wheat Fusarium Head Blight Control at a compound concentration of 25 ppm or lower (Fusarium graminearum): B (from 50 to 69% control of wheat fusarium head blight)
Septoria Leaf Blotch Control at a compound concentration of 25 ppm or lower [5]: AA (≥85% control of wheat septoria leaf blotch)
IC90 (Diplodia maydis (Dm); ≥90% inhibition, 48 hours vs 2% DMSO control, read-out: Compound Concentration (ppm) sufficient for ≥90% inhibition of growth, Dm): 0.08 µg/mL (≈ 0.134 µM)
IC90 ([6]; ≥90% inhibition, 48 hours vs 2% DMSO control, read-out: Compound Concentration (ppm) sufficient for ≥90% inhibition of growth, Fv): 0.08 µg/mL (≈ 0.134 µM)

COc1ccccc1[C@H](Cn1c(=O)n(C(C)(C)C(=O)NC(C)C)c(=O)c2c(C)c(-n3nccn3)sc21)OCCC#N [Compound I-193, (R)-2-(1-(2-(2-cyanoethoxy)-2-(2-methoxyphenyl)ethyl)-5-methyl-2,4-dioxo-6-(2H-1,2,3-triazol-2-yl)-1,4-dihydrothieno[2,3-d]pyrimidin-3 (2H)-yl)-N-isopropyl-2-methylpropanamide]
Barley Powdery Mildew Control at a compound concentration of 10 ppm or lower [1]: AA (≥85% control of barley powdery mildew)
IC90 [2, 7]: 2 µg/mL (≈ 3.45 µM)
IC90 [3, 8]: 0.08 µg/mL (≈ 0.138 µM)
IC90 [4, 9]: ≥ 0.08 µg/mL
IC90 (Rhizoctonia solani (Rs); [10]): 0.08 µg/mL (≈ 0.138 µM)
Plant Weight (Pythium ultimum): 5.36 g
Improvement in plant weight (Pythium ultimum): 86%
Wheat Fusarium Head Blight Control at a compound concentration of 25 ppm or lower (Fusarium graminearum): B (from 50 to 69% control of wheat fusarium head blight)
Septoria Leaf Blotch Control at a compound concentration of 25 ppm or lower [5]: AA (≥85% control of wheat septoria leaf blotch)
IC90 (Diplodia maydis (Dm); [11]): 0.08 µg/mL (≈ 0.138 µM)
IC90 [6, 12]: 0.4 µg/mL (≈ 0.69 µM)

COc1ccc(F)cc1[C@H](Cn1c(=O)n(C(C)(C)C(=O)NC(C)C)c(=O)c2c(C)c(-n3cccn3)sc21)OCCC#N [Compound I-191, (R)-2-(1-(2-(2-cyanoethoxy)-2-(5-fluoro-2-methoxyphenyl)ethyl)-5-methyl-2,4-dioxo-6-(1H-pyrazol-1-yl)-1,4-dihydrothieno[2,3-d]pyrimidin-3 (2H)-yl)-N-isopropyl-2-methylpropanamide]
Barley Powdery Mildew Control at a compound concentration of 10 ppm or lower [1]: AA (≥85% control of barley powdery mildew)
IC90 [2, 7]: 50 µg/mL (≈ 83.8 µM)
IC90 [3, 8]: 0.08 µg/mL (≈ 0.134 µM)
IC90 [4, 9]: ≥ 0.4 µg/mL
IC90 (Rhizoctonia solani (Rs); [10]): 0.08 µg/mL (≈ 0.134 µM)
Plant Weight (Pythium ultimum): 5.00 g
Improvement in plant weight (Pythium ultimum): 80%
Wheat Fusarium Head Blight Control at a compound concentration of 25 ppm or lower (Fusarium graminearum): C (from 25 to 49% control of wheat fusarium head blight)
Septoria Leaf Blotch Control at a compound concentration of 25 ppm or lower [5]: AA (≥85% control of wheat septoria leaf blotch)
IC90 (Diplodia maydis (Dm); [11]): ≥ 0.4 µg/mL
IC90 [6, 12]: 0.4 µg/mL (≈ 0.67 µM)
